Data reported in PMC5501782 (Scientific Reports, 2017).
Non-standard residues stand in square brackets, D forms with d. Residues, ends and D or L forms follow the SMILES beside them.

Tested on: influenza virus (A/Puerto Rico/8/34, PR8) expressing green fluorescent protein (PR8-GFP)
Assay type: cell-based

SMILES: CC(C)C[C@@H](NC(=O)[C@@H](CC(C)C)NC(=O)[C@@H](CC(N)=O)NC(=O)[C@H](NC(=O)[C@@H](Cc1ccccc1)NC(=O)CNC(=O)[C@@H](Cc1ccc(O)cc1)NC(=O)CNC(=O)[C@@H](CCCNC(=N)N)NC(=O)[C@@H](CCCCN)NC(=O)[C@@H](CCCCN)NC(=O)[C@@H](CCCNC(=N)N)NC(=O)[C@@H](CCCNC(=N)N)NC(=O)[C@@H](CCC(N)=O)NC(=O)[C@@H](CCCNC(=N)N)NC(=O)[C@@H](CCCNC(=N)N)NC(=O)[C@H](N)CCCNC(=N)N)C(C)C)C(=O)N[C@H](Cc1ccccc1)C(=O)N[C@H](CC(C)C)C(=O)N[C@@H](C(=O)N[C@@H](C(=O)N[C@H](CCC(=O)O)C(=O)O)C(C)C)C(C)C [TAT-Kα2] (H-[dR][dR][dR][dQ][dR][dR][dK][dK][dR]G[dY]G[dF][dV][dN][dL][dL][dF][dL][dV][dV][dE]-OH)
- inhibition of PR8-GFP virus infection: significantly inhibited
